Assay results published in patent publication EP0719267B1, “SECOND MESSENGER CELL SIGNALING INHIBITORS” (CELL THERAPEUTICS, INC., priority 1993, dated 1994).

Key:
[1] = tested on: murine thymocyte proliferation; test: Thymocyte proliferation co-stimulated by ConA and IL-2 (tritiated thymidine); format: cell-based, Balb/C mice; conditions: ConA and IL-2 co-stimulation
Experimental: (§1) ConA, used to activate CD3, induces T-cell proliferation and differentiation. Thymuses, obtained from normal, female Balb/C mice, were dissociated and plated into 96-well plates at a density of 2 x 10^5 cells/well. ConA (0.25 mg/ml) and IL-2 (15 U/ml) were added to the wells. The cells were incubated for 4 days at 37°C. On day 4, the cells were pulsed with tritiated thymidine and incubated for an additional 4 hours. The amount of tritiated thymidine dye incorporated by the harvested cells was determined in a liquid scintillation counter. Drug doses (shown in figs. 1A and 1B) were added two hours prior to ConA and IL-2 activation.
as §1, with “Thymuses,” for “ConA, used to activate CD3, induces T-cell proliferation and differentiation. Thymuses,”, “37 °C.” for “37°C.”, “Doses” for “Drug doses”, “26A, 26B” for “1A”, “26C)” for “1B)”
In another in vitro protocol, thymocyte proliferation was induced by sub-mitogenic doses of Con A (0.25 µg/ml) and IL-2 (20 ng/ml). Cells were stimulated for 96 hours, prior to addition of ^3H-TdR for 4 hours. The cells were harvested and incorporation of ^3H-TdR was determined.
45 on co-stimulated thymocyte proliferation. In an assay procedure, murine thymocytes were stimulated with ConA and IL-2 with 1 µM compound no. 45 added either 1 hour prior to IL-2 (-1), simultaneous with IL-2 (0) or at various times following IL-2 addition (1-92 hour). At 92 hours the thymocytes were pulsed with ^3H-TdR, harvested and counted by scintillation 4 hours later.

mast cell degranulation = test: Serotonin release assay for inhibition of mast cell degranulation; format: cell-based; conditions: Mast cell; Concentration 50 µM
Source text: This assay provides an in vitro model for an allergy and asthma therapeutic product. […]

[2] = tested on: murine lymph node cell proliferation; test: Lymph node cell proliferation stimulated by antigen; format: cell-based; conditions: Mus musculus
Source text: This example illustrates activity of representative inventive compounds nos. 27, 49, 50, 45, 43 or 41 (above) in assays detecting activity in response to cell stimulus. One assay, murine lymph node cell proliferation (stimulated by anitgen) was used to determine inhibitive activity of compound no. 27 on proliferation of the lymph node cells. This in vitro assay is an immune suppressive/autoimmune treatment predictive assay emphasizing cellular or T cell immune response. The assay used murine T cells that proliferate in vitro in response to a soluble protein antigen, used to prime the T cells in vivo. Compound was added to the cells at doses indicated in figures 7 and 8 (showing assay results) two hours prior to activation with […]. Compound no. 27 inhibited T cell proliferation in a dose-response manner. IC50 values for compound no.

[3] = tested on: mixed lymphocyte reaction assay culture; test: Cell percent viability in mixed lymphocyte reaction culture; format: cell-based; conditions: 100 µM, six days of cell culture
Experimental: Cell percent viability in mixed lymphocyte reaction assay culture was determined after six days of cell culture. […] Control cells unexposed to drugs are generally 78 to 85% viable under these culture conditions. In this assay, all inventive compounds were present at 100 µM concentrations, generally well above corresponding IC50 values in this assay (see fig. 2D). […] Compounds nos.

[4] = tested on: transformed cells (Ras 3T3) and normal 3T3 cells; test: Cytotoxicity for transformed versus non-transformed cells; format: cell-based; conditions: 1, 10 and 100 µM
Experimental: This example compares cytotoxicity results for inventive compound no. 27 for transformed cells and non-transformed cells. In transformed cells (Ras 3T3) and in normal 3T3 cells, cytotoxicity of compound no. 27 at concentrations of 1, 10 and 100 µM was determined. Figure 18 reports results obtained in this assay. At each of the above concentrations, compound no.

[5] = tested on: murine splenocyte proliferation; test: Splenocyte (B cell) proliferation stimulated by anti-mu/anti-IgM and IL-4; format: cell-based; conditions: Mus musculus, anti-mu and IL-4 12.5 ng/ml
Experimental: This example illustrates inhibitive effects of compounds nos. 27 and 28 on murine splenocyte proliferation stimulated by anti-mu ([…]) and interleukin-4 (IL-4, 12.5 ng/ml). This in vitro assay, described above, is indicative of immune-suppressive/autoimmune treatment assay emphasizing humoral or B cell immune response. The inventive compound was added to the cells at the doses indicated two hours prior to activation with anti-mu and IL-4. Both compounds nos. 27 and 28 inhibited splenocyte proliferation in a dose-response manner. IC50 values for compounds nos. Background counts were less than 200 cpm.
In figure 57, results shown illustrate that inventive compound no. 45 inhibits B cell proliferation. Murine splenocytes were stimulated with anti-IgM antibodies (10 µg/ml) and murine IL-4 (12.5 ng/ml). Cells were pulsed with ^3HTdR at 44 hours, harvested 4 hours later, and the incorporation of ^3H-TdR was determined by liquid scintillation.

[6] = tested on: murine thymocyte proliferation; test: Thymocyte proliferation stimulated by Con A and IL-1α; format: cell-based; conditions: Mus musculus, 2 h, added two hours prior to Con A and IL-1α
Experimental: In a first part of this example, compounds nos. 30, 33, 28 and 27 (see above for chemical names and structures) show effective inhibition of murine thymocyte proliferation stimulated by Con A and interleukin 1 alpha (IL-1α). Compounds nos. 30, 33, 28 and 27 were added to cell cultures two hours prior to activation with Con A and IL-1α in a thymocyte co-stimulation procedure akin to that discussed in example 21. […] IC50 values determined for each inventive compound tested are as follow: compound no. […] Background counts in the assay were less than 200 cpm.

[7] = tested on: proliferative PMBC response to allogeneic stimulation; test: Two-way mixed lymphocyte reaction; format: cell-based
Source text: This example illustrates therapeutic potential for various autoimmune and inflammatory diseases of the inventive compounds by comparing potency (inhibitive activity) with cytotoxicity data obtained using the following indicative assay procedures. In a mixed lymphocyte reaction assay of compounds nos. […] Compounds nos. […] 2A and 2B. Both compounds nos. […] 2C.
Compound no. […] Compound no.

## Cn1cnc2c1c(=O)n(CCCCCCCC(O)CNCc1ccccc1)c(=O)n2C (stereo not shown) [compound no. 27, 1-(8-hydroxy-9-(N-benzyl)aminononyl)-3,7-dimethylxanthine]
[1]
  inhibition of thymocyte proliferation: the most potent immune-suppressive effects
Mast cell degranulation
  inhibition at 50 µM: 29%
[2]; first experiment (fig. 7)
  IC50: 23.1 µM
[2]; second experiment (fig. 8)
  IC50: 19 µM
[3]
  cytotoxicity (percent viability): little or no cytotoxicity
[4]
  differential cytotoxicity: more cytotoxic for the cancer cells than normal cells
[5]
  IC50: 3.3 µM
[6]
  IC50: < 12.5 µM
[7]; Lymphocyte, figs. 2A-2C
  IC50: 40 µM
[7]; fig. 2D
  immune suppression activity: did not exhibit significant suppressive activity
